Results from paper PMC4536136 (Bioorganic & medicinal chemistry, 2015).

Key:
[1] = molecular target: intracellular Leishmania donovani strain MHOM/ET/67/L82 β-lactamase expressing parasites; details: cited from earlier work; for EC50: read-out: L. donovani EC50, ref Van Horn et al.[18]
[2] = Pharmacokinetic analysis after ip administration in mice; type: in vivo; details: for Kp / concentration at 4 h / concentration at 12 h: Swiss Webster, mouse, ip, 10 mg/kg; for Kp: liver and spleen (versus plasma)
[3] = tested on: BALB/c mice; assay: Toxicity to BALB/c mice; type: in vivo
[4] = tested on: L. donovani; details: 15 mg/kg/day for five days, ip; cited from earlier work

SMILES | EC50 [1] | Kp [2] | concentration at 4 h ([2]; liver) | concentration at 12 h ([2]; liver) | concentration at 4 h ([2]; spleen) | concentration at 12 h ([2]; spleen) | toxicity to BALB/c mice ([3]; 10 mg/kg/day × 5, ip) | toxicity to BALB/c mice ([3]; 30 mg/kg/day × 5, ip) | further results
CC(C)Nc1nc(NCc2ccco2)c2ccccc2n1 [Compound 3] | 2500 ± 400 nM | – | – | – | – | – | – | – | –
CNc1nc(NCc2ccccc2)nc2ccccc12 [Compound 2, N^2-benzyl-N^4-methylquinazoline-2,4-diamine] | 150 ± 20 nM | – | – | – | – | – | – | – | –
c1ccc(CNc2nc(NCc3ccccc3)c3ccccc3n2)cc1 [Compound 1, N^2,N^4-dibenzylquinazoline-2,4-diamine] | 670 ± 270 nM | – | – | – | – | – | – | – | –
Clc1ccc(CNc2nc(NCc3ccccc3)c3ccccc3n2)cc1 [Compound 15, N^4-benzyl-N^2-(4-chlorobenzyl)quinazoline-2,4-diamine] | – | 20 to 21 | 25.3 µM | 25.3 µM | 26.6 µM | 26.6 µM | no apparent adverse effects | toxic | plasma AUC relative to 40 after adjusting for dose ([2]; 10 mg/kg ip, mice): 2.8 fold
CC(C)Nc1nc(NCc2ccccc2)nc2ccccc12 [Compound 40, N^2-benzyl-N^4-isopropylquinazoline-2,4-diamine] | – | 3.2 to 16 | 20.2 µM | 20.2 µM | 16.5 µM | 16.5 µM | no apparent adverse effects | toxic | –
Cc1ccc2c(NCc3ccco3)nc(NC(C)C)nc2c1 [Compound 4, N^4-(furan-2-ylmethyl)-N^2-isopropyl-7-methylquinazoline-2,4-diamine] | – | – | – | – | – | – | – | – | L. donovani EC50 ([1]; ref Van Horn et al.[18]): submicromolar; activity in L. donovani-infected mice [4]: promising activity
